Test results reported in patent US9850283B2, “Macrocyclic inhibitors of the PD-1/PD-L1 and CD80(B7-1)/PD-L1 protein/protein interactions” (BRISTOL-MYERS SQUIBB COMPANY, priority 2013, dated 2017).
Where two headings read alike, the source gives them in different places. Positions of bridges follow the written chain, without caps; N, C: chain ends. Non-standard residues stand in square brackets, D forms with d. Residues, ends and D or L forms follow the SMILES beside them. ξ: configuration not given here. Phe(3,4,5-F3) = N[C@@H](Cc1cc(F)c(F)c(F)c1)C(=O)O; Phe(2,4-Cl2) = N[C@@H](Cc1ccc(Cl)cc1Cl)C(=O)O; Phe(4-Cl) = N[C@@H](Cc1ccc(Cl)cc1)C(=O)O; 2Nal = N[C@@H](Cc1ccc2ccccc2c1)C(=O)O; Dopa = N[C@@H](Cc1ccc(O)c(O)c1)C(=O)O; Bta = N[C@@H](Cc1csc2ccccc12)C(=O)O; Hyp = O=C(O)[C@@H]1C[C@@H](O)CN1; NMeF = CN[C@@H](Cc1ccccc1)C(=O)O; NMeE = CN[C@@H](CCC(=O)O)C(=O)O; NMeNle = CCCC[C@H](NC)C(=O)O; NMeS = CN[C@@H](CO)C(=O)O; NMeA = CN[C@@H](C)C(=O)O; Orn = NCCC[C@H](N)C(=O)O; Dab = NCC[C@H](N)C(=O)O; Dap = NC[C@H](N)C(=O)O; ξC = NC(CS)C(=O)O; Sar = CNCC(=O)O

How the values were obtained:
[1] = molecular target: T1, Human PD-L1/PD-1 (Homo sapiens, UniProt Q9NZQ7); experiment: HTRF PD-1-Ig/PD-L1-His binding assay (human PD-L1)
T1 construct: made in house; host or cells: HEK293T
Procedure, shortened: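 Soluble PD-1-Ig binding to PD-L1-His measured by HTRF in dPBS with 0.1% BSA and 0.05% Tween-20. Detection used europium cryptate anti-Ig antibody (1 nM final) and APC anti-His antibody (20 nM final) added on top of the binding reaction.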

[2] = molecular target: T2, LK35.2-hPD-L1 cells / PE-labeled PD-1-Ig (Homo sapiens, UniProt Q9NZQ7); experiment: LK35.2-hPD-L1 cell binding high-content screening assay; format: cell-based
T2 construct: expressed in transfected cells; host or cells: LK35.2 mouse B cell line
Procedure, shortened: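 Using overnight-cultured LK35.2-hPD-L1 mouse B cells, compound was co-incubated with phycoerythrin-tagged human PD-1-Ig (final 1 nM) at 37 °C for one hour. Unbound label was removed by triple dPBS washing prior to high-content image acquisition and analysis.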

[3] = cluster symbol, read-out: HTRF IC50 cluster
[4] = cluster symbol, cell line of CBA not given (LK35.2-hPD-L1 or 293T-hPD-L1), read-out: CBA IC50 cluster
[5] = cell binding assay, cell line not given, cluster symbol, read-out: CBA IC50 cluster

T1 sequence (Q9NZQ7 with tags, fused parts or gaps): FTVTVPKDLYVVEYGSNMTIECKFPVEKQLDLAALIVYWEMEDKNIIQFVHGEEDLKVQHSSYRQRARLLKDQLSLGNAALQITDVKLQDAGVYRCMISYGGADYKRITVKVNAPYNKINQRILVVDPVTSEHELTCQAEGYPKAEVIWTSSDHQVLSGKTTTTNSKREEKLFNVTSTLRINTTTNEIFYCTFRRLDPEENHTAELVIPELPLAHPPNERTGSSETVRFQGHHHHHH
T2 sequence (Q9NZQ7 19-290): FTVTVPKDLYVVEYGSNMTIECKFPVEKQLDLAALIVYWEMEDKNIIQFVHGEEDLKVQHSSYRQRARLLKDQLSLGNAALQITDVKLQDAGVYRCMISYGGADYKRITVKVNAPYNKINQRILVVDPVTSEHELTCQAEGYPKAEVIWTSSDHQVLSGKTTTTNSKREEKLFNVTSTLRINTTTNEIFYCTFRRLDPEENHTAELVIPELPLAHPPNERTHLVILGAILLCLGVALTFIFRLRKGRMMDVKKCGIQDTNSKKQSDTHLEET

Row | SMILES | IC50 [1, 3] [nM] | IC50 [2, 4] [nM] | IC50 [2, 5] [nM] | IC50 ([1]; value given instead of cluster, read-out: HTRF IC50 value) [nM] | IC50 ([2]; cell binding assay, cell line not given, value given instead of cluster, read-out: CBA IC50 value) [nM]
1 | CCCC[C@H]1C(=O)N(C)[C@@H](CCCC)C(=O)N[C@@H](CCCNC(=N)N)C(=O)N[C@H](C(=O)NCC(N)=O)CSCC(=O)N[C@@H](Cc2ccc(O)cc2)C(=O)N(C)[C@@H](CCC(=O)O)C(=O)N[C@@H](CC(N)=O)C(=O)N2CCC[C@H]2C(=O)N[C@@H](Cc2cnc[nH]2)C(=O)N[C@@H](CC(C)C)C(=O)N2CCC[C@H]2C(=O)N[C@@H](Cc2c[nH]c3ccccc23)C(=O)N[C@@H](CO)C(=O)N[C@@H](Cc2csc3ccccc23)C(=O)N1C [Example 1191] ({CH2CO}-Y[NMeE]NPHLPWS[Bta][NMeNle][NMeNle]RCG-NH2; thioether N-14) | > 30.5 | > 74.3 | – | – | –
2 | CCCC[C@H]1C(=O)N(C)[C@@H](CCCC)C(=O)N[C@@H](CCCNC(=N)N)C(=O)N[C@H](C(=O)NCC(N)=O)CSCC(=O)N[C@@H](Cc2ccccc2)C(=O)N(C)[C@@H](C)C(=O)N[C@@H](CC(N)=O)C(=O)N2CCC[C@H]2C(=O)N[C@@H](Cc2cnc[nH]2)C(=O)N[C@@H](CC(C)C)C(=O)N[C@@H](CCC(N)=O)C(=O)N[C@@H](Cc2c[nH]c3ccccc23)C(=O)N[C@@H](CO)C(=O)N[C@@H](Cc2c[nH]c3ccccc23)C(=O)N1C [Example 1074] ({CH2CO}-F[NMeA]NPHLQWSW[NMeNle][NMeNle]RCG-NH2; thioether N-14) | > 30.5 | > 74.3 | – | – | –
3 | CCCC[C@H]1C(=O)N(C)CC(=O)N[C@@H](CC(=O)O)C(=O)N[C@@H](C(C)C)C(=O)N(C)[C@@H](Cc2ccccc2)C(=O)N[C@@H](Cc2ccc3ccccc3c2)C(=O)N(C)CC(=O)N[C@@H](Cc2c[nH]c3ccccc23)C(=O)N[C@@H](Cc2ccc(O)cc2)C(=O)N[C@@H](CC(C)C)C(=O)N[C@H](C(=O)NCC(N)=O)CSCC(=O)N[C@@H](Cc2ccccc2)C(=O)N(C)[C@@H](Cc2ccccc2)C(=O)N1C [Example 3535] ({CH2CO}-F[NMeF][NMeNle][Sar]DV[NMeF][2Nal][Sar]WYLCG-NH2; thioether N-13) | > 30.5 | – | 4.78 to 72.9 | – | –
4 | CCCC[C@H]1C(=O)N(C)[C@@H](CCCC)C(=O)N[C@@H](Cc2cccnc2)C(=O)N[C@H](C(=O)NCC(N)=O)CSCC(=O)N[C@@H](Cc2ccc(O)cc2)C(=O)N(C)[C@@H](C)C(=O)N[C@@H](CC(N)=O)C(=O)N2CCC[C@H]2C(=O)N[C@@H](Cc2cnc[nH]2)C(=O)N[C@@H](CC(C)C)C(=O)N2C[C@H](O)C[C@H]2C(=O)N[C@@H](Cc2c[nH]c3ccccc23)C(=O)N[C@@H](CO)C(=O)N[C@@H](Cc2c[nH]c3ccccc23)C(=O)N1C [Example 7033] | 0.385 to 6.74 | – | 0.158 to 4.71 | – | –
5 | CCCC[C@H]1C(=O)N(C)CC(=O)N[C@@H](CC(=O)O)C(=O)N[C@@H](C(C)C)C(=O)N(C)[C@@H](Cc2ccccc2)C(=O)N[C@@H](Cc2ccc(O)cc2)C(=O)N(C)CC(=O)N[C@@H](Cc2ccc(Cl)cc2Cl)C(=O)N[C@@H](Cc2ccc(O)cc2)C(=O)N[C@@H](CC(C)C)C(=O)N[C@H](C(=O)NCC(N)=O)CSCC(=O)N[C@@H](Cc2ccccc2)C(=O)N(C)[C@@H](Cc2ccccc2)C(=O)N1C [Example 3549] ({CH2CO}-F[NMeF][NMeNle][Sar]DV[NMeF]Y[Sar][Phe(2,4-Cl2)]YLCG-NH2; thioether N-13) | – | – | – | 272 | 728
6 | CCCC[C@H]1C(=O)N(C)CC(=O)N[C@@H](CC(=O)O)C(=O)N[C@@H](C(C)C)C(=O)N(C)[C@@H](Cc2ccccc2)C(=O)N[C@@H](Cc2ccc(O)cc2)C(=O)N(C)CC(=O)N[C@@H](Cc2c[nH]c3ccccc23)C(=O)N[C@@H](Cc2c[nH]c3ccccc23)C(=O)N[C@@H](CC(C)C)C(=O)N[C@H](C(=O)NCC(N)=O)CSCC(=O)N[C@@H](Cc2ccccc2)C(=O)N(C)[C@@H](Cc2ccccc2)C(=O)N1C [Example 3539] (HELM PEPTIDE1{[O=C(C[*:3])[*:2]].F.[meF].[CCCC[C@@H](C(=O)[*:2])N(C)[*:1]].[Sar].D.V.[meF].Y.[Sar].W.W.L.C.G.[am]}$PEPTIDE1,PEPTIDE1,1:R3-14:R3$$$V2.0) | > 30.5 | – | > 74.3 | – | –
7 | CCCC[C@H]1C(=O)N(C)[C@@H](CCCC)C(=O)N[C@@H](CCCNC(=N)N)C(=O)N[C@H](C(=O)NCC(=O)NCC(N)=O)CSCC(=O)N[C@@H](Cc2ccccc2)C(=O)N(C)[C@@H](C)C(=O)N[C@@H](CC(N)=O)C(=O)N2CCC[C@H]2C(=O)N[C@@H](Cc2cnc[nH]2)C(=O)N[C@@H](CC(C)C)C(=O)N(C)CC(=O)N[C@@H](Cc2c[nH]c3ccccc23)C(=O)N[C@@H](CO)C(=O)N[C@@H](Cc2c[nH]c3ccccc23)C(=O)N1C [Example 6001] ({CH2CO}-F[NMeA]NPHL[Sar]WSW[NMeNle][NMeNle]RCGG-NH2; thioether N-14) | 6.76 to 30.3 | – | 4.78 to 72.9 | – | –
8 | CCCC[C@H]1C(=O)N(C)[C@@H](CCCC)C(=O)N[C@@H](CCCN)C(=O)N[C@H](C(=O)NCC(N)=O)CSCC(=O)N[C@@H](Cc2ccc(O)cc2)C(=O)N(C)[C@@H](C)C(=O)N[C@@H](CC(N)=O)C(=O)N2CCC[C@H]2C(=O)N[C@@H](CN)C(=O)N[C@@H](CCC(N)=O)C(=O)N2C[C@H](O)C[C@H]2C(=O)N[C@@H](Cc2c[nH]c3ccccc23)C(=O)N[C@@H](CCN)C(=O)N[C@@H](Cc2csc3ccccc23)C(=O)N1C [Example 1195] ({CH2CO}-Y[NMeA]NP[Dap]Q[Hyp]W[Dab][Bta][NMeNle][NMeNle][Orn]CG-NH2; thioether N-14) | 0.385 to 6.74 | 0.158 to 4.71 | – | – | –
9 | CCCC[C@H]1C(=O)N(C)CC(=O)N[C@@H](CC(=O)O)C(=O)N[C@@H](C(C)C)C(=O)N(C)[C@@H](Cc2ccccc2)C(=O)N[C@@H](Cc2ccc(O)cc2)C(=O)N(C)CC(=O)N[C@@H](Cc2c[nH]c3ccccc23)C(=O)N[C@@H](Cc2ccc(O)cc2)C(=O)N[C@@H](Cc2ccc(O)cc2)C(=O)N[C@H](C(=O)NCC(N)=O)CSCC(=O)N[C@@H](Cc2ccccc2)C(=O)N(C)[C@@H](Cc2ccccc2)C(=O)N1C [Example 3519] (HELM PEPTIDE1{[O=C(C[*:3])[*:2]].F.[meF].[CCCC[C@@H](C(=O)[*:2])N(C)[*:1]].[Sar].D.V.[meF].Y.[Sar].W.Y.Y.C.G.[am]}$PEPTIDE1,PEPTIDE1,1:R3-14:R3$$$V2.0) | 6.76 to 30.3 | – | 4.78 to 72.9 | – | –
10 | CCCC[C@H]1C(=O)N(C)CC(=O)N[C@@H](CC(=O)O)C(=O)N[C@@H](C(C)C)C(=O)N(C)[C@@H](Cc2ccccc2)C(=O)N[C@@H](Cc2ccc(O)cc2)C(=O)N(C)CC(=O)N[C@@H](Cc2c[nH]c3ccccc23)C(=O)N[C@@H](Cc2ccc(O)c(O)c2)C(=O)N[C@@H](CC(C)C)C(=O)N[C@H](C(=O)NCC(N)=O)CSCC(=O)N[C@@H](Cc2cc(F)c(F)c(F)c2)C(=O)N(C)[C@@H](Cc2ccccc2)C(=O)N1C [Example 3609] ({CH2CO}-[Phe(3,4,5-F3)][NMeF][NMeNle][Sar]DV[NMeF]Y[Sar]W[Dopa]LCG-NH2; thioether N-13) | 0.385 to 6.74 | – | 0.158 to 4.71 | – | –
11 | CCCC[C@H]1C(=O)N(C)CC(=O)N[C@@H](CC(=O)O)C(=O)N[C@@H](C(C)C)C(=O)N(C)[C@@H](Cc2ccccc2)C(=O)N[C@@H](Cc2ccc(O)cc2)C(=O)N(C)CC(=O)N[C@@H](Cc2c[nH]c3ccccc23)C(=O)N[C@@H](Cc2ccc(O)cc2)C(=O)N2CCC[C@@H]2C(=O)N[C@H](C(=O)NCC(N)=O)CSCC(=O)N[C@@H](Cc2ccccc2)C(=O)N(C)[C@@H](Cc2ccccc2)C(=O)N1C [Example 3565] (HELM PEPTIDE1{[O=C(C[*:3])[*:2]].F.[meF].[CCCC[C@@H](C(=O)[*:2])N(C)[*:1]].[Sar].D.V.[meF].Y.[Sar].W.Y.[dP].C.G.[am]}$PEPTIDE1,PEPTIDE1,1:R3-14:R3$$$V2.0) | > 30.5 | – | > 74.3 | – | –
12 | CCCC[C@H]1C(=O)N(C)[C@@H](CCCC)C(=O)N[C@@H](CCCNC(=N)N)C(=O)N[C@H](C(=O)NCC(N)=O)CSCC(=O)N[C@@H](Cc2ccc(Cl)cc2)C(=O)N(C)[C@@H](C)C(=O)N[C@@H](CC(N)=O)C(=O)N2CCC[C@H]2C(=O)N[C@@H](Cc2cnc[nH]2)C(=O)N[C@@H](CC(C)C)C(=O)N2CCC[C@H]2C(=O)N[C@@H](Cc2c[nH]c3ccccc23)C(=O)N[C@@H](CO)C(=O)N[C@@H](Cc2c[nH]c3ccccc23)C(=O)N1C [Example 1117] ({CH2CO}-[Phe(4-Cl)][NMeA]NPHLPWSW[NMeNle][NMeNle]RCG-NH2; thioether N-14) | 6.76 to 30.3 | 4.78 to 72.9 | – | – | –
13 | CCCC[C@H]1C(=O)N(C)[C@@H](COCC)C(=O)N[C@@H](CCCNC(=N)N)C(=O)NC(C(=O)NCC(N)=O)CSCC(=O)N[C@@H](Cc2ccc(O)cc2)C(=O)N(C)[C@@H](C)C(=O)N[C@@H](CC(N)=O)C(=O)N2CCC[C@H]2C(=O)N[C@@H](Cc2cnc[nH]2)C(=O)N[C@@H](CC(C)C)C(=O)N2CCC[C@H]2C(=O)N[C@@H](Cc2c[nH]c3ccccc23)C(=O)N[C@@H](CO)C(=O)N[C@@H](Cc2c[nH]c3ccccc23)C(=O)N1C (some centres unmarked) [Example 9041] ({CH2CO}-Y[NMeA]NPHLPWSW[NMeNle][NMeS](Et)R[ξC]G-NH2; thioether N-14) | 0.385 to 6.74 | – | 0.158 to 4.71 | – | –
